Legend:
Assay type in all cases: in vivo
[1] = tested on: ryegrass, Italian (Italian ryegrass, Lolium multiflorum); experiment: Test A preemergence, ryegrass, Italian; conditions: 0 to 100 scale
Description: (§1) Seeds of plant species selected from bamyardgrass (Echinochloa crus-galli), kochia (Kochia scoparia), ragweed (common ragweed, Ambrosia elatior), ryegrass, Italian (Italian ryegrass, Lolium multiflorum), foxtail, giant (giant foxtail, Setaria faberii), pigweed (Amaranthus retroflexus), crabgrass, large (large crabgrass, Digitaria sanguinalis), momingglory (Ipomoea spp.), velvetleaf (Abutilon theophrasti), wheat (Triticum aestivum), and corn (Zea mays) were planted into a blend of loam soil and sand and treated preemergence with a directed soil spray using test chemicals formulated in a non-phytotoxic solvent mixture which included a surfactant. At the same time, plants selected from these crop and weed species and also blackgrass (Alopecurus myosuroides), and galium (catchweed bedstraw, Galium aparine) were planted in pots containing the same blend of loam soil and sand and treated with postemergence applications of test chemicals formulated in the same manner. Plants ranged in height from 2 to 10 cm and were in the one- to two-leaf stage for the postemergence treatment. Treated plants and untreated controls were maintained in a greenhouse for approximately 10 days, after which time all treated plants were compared to untreated controls and visually evaluated for injury. Plant response ratings, summarized in Table A, are based on a 0 to 100 scale where 0 is no effect and 100 is complete control. A dash (-) response means no test result.

rice (Oryza sativa) = experiment: Test B flooded paddy test, rice; conditions: Flood, 250 g ai/ha; scale of 0 to 100
Outline: (§2)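 In-water application to pots flooded 3 cm deep, plants at 2-leaf stage. Held in greenhouse 13–15 days at constant flood depth. Scored 0–100 by eye against controls.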

kochia (Kochia scoparia) [2] = experiment: Test A preemergence, kochia; conditions: 0 to 100 scale
Description: as §1

[3] = tested on: galium (catchweed bedstraw, Galium aparine); experiment: Test C postemergence, galium
Description: (§3) Seeds of plant species selected from blackgrass (Alopecurus myosuroides), ryegrass, Italian (Italian ryegrass, Lolium multiflorum), wheat (winter wheat, Triticum aestivum), galium (catchweed bedstraw, Galium aparine), corn (Zea mays), crabgrass, large (large crabgrass, Digitaria sanguinalis), foxtail, giant (giant foxtail, Setaria faberii), lambsquarters (Chenopodium album), morningglory (Ipomoea coccinea), nutsedge, yellow (yellow nutsedge, Cyperus esculentus), pigweed (Amaranthus retroflexus), johnsongrass (Sorghum halepense), ragweed (common ragweed, Ambrosia elatior), soybean (Glycine max), barnyardgrass (Echinochloa crus-galli), oilseed rape (Brassica napus), waterhemp (common waterhemp, Amaranthus rudis), chickweed (common chickweed, Stellaria media), oat, wild (wild oat, Avena fatua), kochia (Kochia scoparia), and velvetleaf (Abutilon theophrasti) were planted in pots containing Redi-Earth® planting medium (Scotts Company, 14111 Scottslawn Road, Marysville, Ohio 43041) comprising spaghnum peat moss, vermiculite, wetting agent and starter nutrients and treated with postemergence applications of a test chemical formulated in a non-phytotoxic solvent mixture which included a surfactant. Plants ranged in height from 2 to 18 cm (1- to 4-leaf stage) for postemergence treatments. Treated plants and controls were maintained in a greenhouse for 13 to 15 days, after which time all species were compared to controls and visually evaluated. Plant response ratings, summarized in Table C, are based on a scale of 0 to 100 where 0 is no effect and 100 is complete control. A dash (-) response means no test result.

[4] = tested on: pigweed (Amaranthus retroflexus); experiment: Test C postemergence, pigweed
Description: as §3

[5] = tested on: lambsquarters (Chenopodium album); experiment: Test C postemergence, lambsquarters
Description: as §3

[6] = tested on: morningglory (Ipomoea coccinea); experiment: Test C postemergence, morningglory
Description: as §3

kochia (Kochia scoparia) [7] = experiment: Test A postemergence, kochia; conditions: 0 to 100 scale
Description: as §1

[8] = tested on: barnyardgrass (Echinochloa crus-galli); experiment: Test A preemergence, barnyardgrass; conditions: 0 to 100 scale
Outline: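 Test chemicals in solvent with surfactant applied preemergence as directed soil spray, or postemergence to plants at one- to two-leaf stage (2–10 cm), in loam–sand soil. Injury visually rated versus untreated controls after about 10 days in greenhouse, on a 0 (no effect) to 100 (complete control) scale.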

[9] = tested on: ragweed (common ragweed, Ambrosia elatior); experiment: Test C postemergence, ragweed
Description: as §3

[10] = tested on: blackgrass (Alopecurus myosuroides); experiment: Test A postemergence, blackgrass; conditions: 0 to 100 scale
Description: as §1

[11] = tested on: ducksalad (Heteranthera limosa); experiment: Test B flooded paddy test, ducksalad; conditions: Flood, 250 g ai/ha; scale of 0 to 100
Outline: as §2

[12] = tested on: waterhemp (common waterhemp, Amaranthus rudis); experiment: Test C postemergence, waterhemp
Description: as §3

[13] = tested on: blackgrass (Alopecurus myosuroides); experiment: Test C postemergence, blackgrass
Description: as §3

corn (Zea mays) = experiment: Test C postemergence, corn
Description: as §3

[14] = tested on: barnyardgrass (Echinochloa crus-galli); experiment: Test B flooded paddy test, barnyardgrass; conditions: Flood, 250 g ai/ha; scale of 0 to 100
Outline: as §2

soybean (Glycine max) = experiment: Test C postemergence, soybean
Description: as §3

[15] = tested on: foxtail, giant (giant foxtail, Setaria faberii); experiment: Test C postemergence, foxtail, giant
Description: as §3

[16] = tested on: ragweed (common ragweed, Ambrosia elatior); experiment: Test A preemergence, ragweed; conditions: 0 to 100 scale
Description: as §1

FC(F)c1cc(-c2ncccc2Oc2ncc(Cl)cn2)on1 [Compound 5, 5-chloro-2-[[2-[3-(difluoromethyl)-5-isoxazolyl]-3-pyridinyl]oxy]pyrimidine]
65: Plant response rating, Pigweed ([4]; 16 g ai/ha) | Plant response rating, Morningglory ([6]; 31 g ai/ha) | Plant response rating, Morningglory ([6]; 62 g ai/ha) | Plant response rating, Ragweed ([9]; 125 g ai/ha) | Plant response rating, Waterhemp ([12]; 31 g ai/ha)
5: Plant response rating, Ragweed ([9]; 16 g ai/ha) | Plant response rating, Blackgrass ([13]; 125 g ai/ha) | Plant response rating, Corn (corn (Zea mays); 16 g ai/ha) | Plant response rating, Corn (corn (Zea mays); 31 g ai/ha) | Plant response rating, Corn (corn (Zea mays); 62 g ai/ha) | Plant response rating, Corn (corn (Zea mays); 125 g ai/ha) | Plant response rating, Foxtail, Giant ([15]; 31 g ai/ha) | Plant response rating, Foxtail, Giant ([15]; 62 g ai/ha)
60: Plant response rating, Lambsquarters ([5]; 125 g ai/ha) | Plant response rating, Waterhemp ([12]; 16 g ai/ha) | Plant response rating, Soybean (soybean (Glycine max); 16 g ai/ha)
40: Plant response rating, Ragweed ([9]; 31 g ai/ha) | Plant response rating, Soybean (soybean (Glycine max); 62 g ai/ha)
0: Plant response rating, Ryegrass, Italian ([1]; 31 g ai/ha) | Plant response rating, Ryegrass, Italian ([1]; 125 g ai/ha) | Plant response rating, Rice (rice (Oryza sativa)) | Plant response rating, Barnyardgrass ([8]; 31 g ai/ha) | Plant response rating, Blackgrass ([10]; 31 g ai/ha) | Plant response rating, Blackgrass ([13]; 16 g ai/ha) | Plant response rating, Blackgrass ([13]; 31 g ai/ha) | Plant response rating, Blackgrass ([13]; 62 g ai/ha) | Plant response rating, Barnyardgrass [14] | Plant response rating, Foxtail, Giant ([15]; 16 g ai/ha) | Plant response rating, Ragweed ([16]; 31 g ai/ha)
80: Plant response rating, Kochia (kochia (Kochia scoparia) [2]; 125 g ai/ha) | Plant response rating, Galium ([3]; 62 g ai/ha) | Plant response rating, Kochia (kochia (Kochia scoparia) [7]; 31 g ai/ha)
20: Plant response rating, Barnyardgrass ([8]; 125 g ai/ha) | Plant response rating, Blackgrass ([10]; 125 g ai/ha)
10: Plant response rating, Kochia (kochia (Kochia scoparia) [2]; 31 g ai/ha) | Plant response rating, Foxtail, Giant ([15]; 125 g ai/ha) | Plant response rating, Ragweed ([16]; 125 g ai/ha)
75: Plant response rating, Galium ([3]; 31 g ai/ha) | Plant response rating, Pigweed ([4]; 31 g ai/ha) | Plant response rating, Pigweed ([4]; 62 g ai/ha) | Plant response rating, Morningglory ([6]; 16 g ai/ha) | Plant response rating, Ducksalad [11] | Plant response rating, Waterhemp ([12]; 62 g ai/ha)
90: Plant response rating, Galium ([3]; 125 g ai/ha) | Plant response rating, Kochia (kochia (Kochia scoparia) [7]; 125 g ai/ha) | Plant response rating, Soybean (soybean (Glycine max); 125 g ai/ha)
55: Plant response rating, Lambsquarters ([5]; 62 g ai/ha)
70: Plant response rating, Lambsquarters ([5]; 31 g ai/ha) | Plant response rating, Soybean (soybean (Glycine max); 31 g ai/ha)
35: Plant response rating, Galium ([3]; 16 g ai/ha) | Plant response rating, Lambsquarters ([5]; 16 g ai/ha) | Plant response rating, Ragweed ([9]; 62 g ai/ha)
85: Plant response rating, Pigweed ([4]; 125 g ai/ha) | Plant response rating, Morningglory ([6]; 125 g ai/ha) | Plant response rating, Waterhemp ([12]; 125 g ai/ha)
